This is an account of results in PMC12677653, “Inhibition of Tumor Lipogenesis and Growth by Peptide‐Based Targeting of SREBP Activation” (Advanced Science, 2025).

In this assay the test system is Insig1 S207/Insig2 S151 phosphorylation. The assay is described as follows: Immunoblot of Insig1 S207/Insig2 S151 phosphorylation, Huh7. In kind it is cell-based, human. Particulars: Huh7 cells, peptide 7.5 or 15 µM 1 h before IGF1 100 ng/mL. The procedure: Figure 1 The Insig1/2 loop 1 peptide binds to S90‐phosphorylated PCK1 and blocks PCK1‐mediated SREBP activation and tumor cell proliferation. Immunoblotting analyses were performed using the indicated antibodies; representative results from three independent experiments are shown (IP, immunoprecipitation; WB, western blot). a) Huh7 cells expressing various Insig1 (top) or Insig2 (bottom) truncation mutants were treated with or without IGF1 (100 ng mL^−1) for 1 h. b,c) Biolayer interferometry assays (Sartorius Octet) were employed to measure the binding affinity of Insig1/2 loop 1 peptide to GST‐PCK1 or GST‐PCK1 pS90 proteins. […] Statistical significance was determined by one‐way analysis of variance (ANOVA). g) Following pretreatment with Insig1/2 loop 1 peptide (15 µM) and IGF1 stimulation (100 ng mL^−1, 8 h), Huh7 cells were subjected to immunofluorescence analysis (scale bar: 10 µm). h) Quantitative PCR analysis of SREBP1 target gene GPAM in Huh7 cells pretreated with Insig1/2 loop 1 peptide (15 µM) and stimulated with IGF1 (100 ng mL^−1) for 10 h. […] Statistical significance was determined by one‐way analysis of variance (ANOVA). i) Quantitative PCR analysis of SREBP1 target gene FASN in Huh7 cells pretreated with Insig1/2 loop 1 peptide (15 µM) and stimulated with IGF1 (100 ng mL^−1) for 10 h. […]

For the sequence “RKKRRQRRRLYPCIDSHLGEPHKFKRE [Insig1/2 loop 1 peptide]”, the “Insig1 S207/Insig2 S151 phosphorylation” value was “markedly inhibited”.
